Patent publication US7625917B2, “Thiolesters and uses thereof” (priority 1998, dated 2009)
Where two headings read alike, the source gives them in different places.

Assays:
[1] = target: T1, recombinant HIV-1 integrase (Human immunodeficiency virus type 1 group M subtype B, UniProt P03366); assay: HIV-1 integrase 3′ processing and strand transfer assay; type: biochemical
T1 construct: recombinant HIV-1 integrase; S. Hughes, ABL Basic Research NCI-FCRDC, Frederick Md
Protocol: (§1) The 5-bromovaleroyl thioester, compound 44, and two 5-pyridiniovaleroyl thioesters, compounds 45and 47, were analyzed in mechanistic and target-based assays. […] Assays for activity against HIV-1 reverse transcriptase rAdT (template/primer) and rCdG (template/primer) using recombinant HIV-1 reverse transcriptase (S. Hughes, ABL Basic Research NCI-FCRDC, Frederick Md.) were performed as described by Rice (1997) supra. Substrate cleavage of recombinant HIV-1 protease in the presence of test compounds using an HPLC-based methodology with the artificial substrate Ala-Ser-Glu-Asn-Try-Pro-Ile-Val-amide (Multiple Peptide Systems, San Diego Calif.) was performed as described by Rice (1997) supra. The ability of recombinant HIV-1 integrase (S. Hughes, ABL Basic Research NCI-FCRDC, Frederick Md.) to carry out 3′ processing and strand transfer activities in the presence of test compounds was performed as described by Buckheit (1994) AIDS Res. Hum. Retroviruses 10:1497-1506, and Turpin (1998) Antimicrob. Agents Chemother. 42: 487-494.

[2] = target: T2, recombinant HIV-1 reverse transcriptase (Human immunodeficiency virus type 1 group M subtype B, UniProt P03366); assay: HIV-1 reverse transcriptase assay (rAdT and rCdG template/primer); type: biochemical
T2 construct: recombinant HIV-1 reverse transcriptase; S. Hughes, ABL Basic Research NCI-FCRDC, Frederick Md
Protocol: as §1

[3] = system: fusion of the HL2/3 and MAGI-CCR-5 cells; assay: viral fusion assay (HL2/3 and MAGI-CCR-5 co-culture); type: cell-based
Protocol: Determination of the effect of the test compounds on viral fusion were carried out as follows. Briefly, HL2/3 cells stably expressing HIV-1 Tat and cell surface gp120 and MAGI-CCR-5 cells stably expressing CD4 and CCR5 on their cell surface, containing a β-galactosidase reporter gene under the control of the HIV-1 LTR were pretreated with test compound for 1 h at 37° C. After incubation, the cells were mixed in […] (2×10^5 MAGI-CCR-5 to 8×10^5 HL2/3 cells) and co-cultured for 18 h at 37° C.; cultures were fixed and stained with X-gal solution for β-galactosidase activity. Blue cells represented the Tat transactivation of the HV-1 LTR upon fusion of the HL2/3 and MAGI-CCR-5 cells via the CD4/CCR5 co-receptor gp120 interaction.

NCp7 = NCp7 (Human immunodeficiency virus type 1 group M subtype B, UniProt P03347); assay: NCp7 oligonucleotide binding EMSA; type: biochemical, HIV-1; conditions: for concentration at which NCp7-oligonucleotide complex formation was inhibited: EMSA
Protocol: Zinc finger reactivity was measured using a Zn specific fluorochrome, TSQ, N-(6-methoxy-8-quinolyl)-p-toluenesulfonamide, assay or a Trp37 zinc finger fluorescence assay. Fluorescent measurements of the Trp37 residue in the C-terminal finger of recombinant HIV-1 NCp7 protein were performed as described by Rice (1995) Science 270:1194-1197; Rice (1997) Antimicrob. Agents Chemother. 41:419-426. Measurement of Zn ejection from both fingers was measured using the Zn-selective fluorchrome probe TSQ (Molecular Probes, Eugene Oreg.) as described by Rice (1996) J. Med. Chem 39:3606-3616. Measurement of the ability of NCp7 to bind to a DNA oligomer, a 44 mer: GGCGACTGGTGAGTACGCCAAAAATTTTGACTAGCGGAGGCTAG (SEQ ID NO:1), analogous to the HIV-1 RNA packaging site was carried out as described by Huang (1998) J. Med. Chem. 41:1371-1381, see also, Rossio (1998) HIV Pathogenesis and Treatment: Keystone Symposium on Molecular and Cellular Biology, Abstract # 4082. Briefly, 50 nM NCp7 was treated with test compounds for 1 hour at RT in […] buffer containing 10% glycerol and 50 mM Tris-HCl (pH 7.5). Labeled oligomer (0.1 picomole, end labeled [^32P] was added in an equal volume of buffer containing 10% glycerol, 50 mM Tris-HCl (pH 7.5), 400 mM KCl and 40 mM MgCl2. The reaction was continued for 15 min at room temperature, and a total of […] (or ¼ of the total reaction volume) was separated on nondenaturing 4.5% polyacrylamide gels in 0.5× Tris-Borate electrophoresis buffer. NCp7-oligomer complexes were visualized by autoradiography.
Interaction of zinc finger inhibitors with NCp7 can result in loss of protein structure and their ability to specifically bind oligonucleotides representing the HIV-1ψpackaging site (Huang (1998) supra; Tummino (1997) Antimicrob. Agents Chemother. 41:394-400; South (1993) Protein Sci. 2:3-19; Dannull (1994) EMBO J. 13:1525-1533). The ability of NCp7 to specifically associate with these oligonucleotides after treatment of the protein with a thiolester of the invention was tested. For example, compounds 44, 45 or 47 were very effective at inhibiting Ncp7's ability to associate with target oligonucleotide, as determined using electrophoretic mobility shift assays (EMSA) on nondenaturing polyacrylamide gels. At 1 μM, compound 45 inhibited complex formation. Compounds 44 and 47 inhibited complex formation at 100 μM (see Table 9).

Compound | inhibition of HIV-1 integrase (in words) [1] | inhibition of HIV-1 reverse transcriptase (in words) [2] | inhibition of fusion to host cells (in words) [3] | concentration at which NCp7-oligonucleotide complex formation was inhibited (NCp7) | IC50 [1] | IC50 [2] | IC50 ([2]; read-out: Reverse transcriptase rCdG I50, Table 7, rCdG template/primer, high dose test 100 μM) | IC50 (NCp7)
CC(=O)NS(=O)(=O)c1ccc(NC(=O)c2ccccc2SC(=O)CCCCBr)cc1 [Compound 44, N-[2-(5-bromovaleroylthio)benzoyl]sulfacetamide] | did not inhibit | did not inhibit | did not inhibit | 100 µM |  |  |  | 
CC(=O)NS(=O)(=O)c1ccc(NC(=O)c2ccccc2SC(=O)CCCC[n+]2ccccc2)cc1 [Compound 45, N-[2-(5-pyridinio-valeroylthio)benzoyl]sulfacetamide bromide] | did not inhibit | did not inhibit | did not inhibit | 1 µM |  |  |  | 
O=C(CCCC[n+]1ccccc1)Sc1ccccc1C(=O)Nc1ccc(S(=O)(=O)c2ccc([N+](=O)[O-])cc2)cc1 [Compound 47] | did not inhibit | did not inhibit | did not inhibit | 100 µM | > 100 µM | > 100 µM | > 100 µM | 100 µM
